Here are results for one molecule from BindingDB's records for doi:10.1016/S0960-894X(01)80292-4 (1994).

As usually defined, the IC50 is the concentration at which inhibition is half-maximal. Lower therefore signals greater potency in that assay.

The target in experiment [1] is T1, Human immunodeficiency virus type 1 protease (Human immunodeficiency virus 1, UniProt Q72874). Description: (§1) Inhibitory activity was evaluated against HIV-1 protease.
Experiment [2] deals with T1, Human immunodeficiency virus type 1 protease. The description is as §1. This is another data set of the same source.

SMILES strings stand for the structures. A value given as a limit tells only on which side of the number the result lay.

Regarding `OC1N=C(Cc2ccccc2)P(O)(O)=C(Cc2ccccc2)N1` (configuration not stated) [4,6-Dibenzyl-5-hydroxy-5-oxo-5lambda*5*-[1,3,5]diazaphosphinan-2-one], the half-maximal inhibitory concentration (IC50) in experiment [1] and in experiment [2] was more than 100 µM in each case.
